Key:
[1] = system: Ba/F3 LMNA-NTRK1-G595R cell line; experiment: In vitro cytological inhibitory activity (CelltiterGlo assay); format: cell-based; conditions: Mus musculus, BaF3, Ba/F3 LMNA-NTRK1-G595R cells, 72 hrs
Procedure: (§1) The cell lines used in the experiment have the following meanings: Ba/F3 LMNA-NTRK1-G595R cell line: • a stable expression cell line of Ba/F3 cells transfected with LMNA-NTRK1 G595R; Ba/F3 ETV6-NTRK3-G623R cell line: • a stable expression cell line of Ba/F3 cells transfected with ETV6-NTRK3-G623R. Experimental Method (CelltiterGlo Assay) 1. Cell Culture and Inoculation
(§2) All cells were suspension cells and the medium was RPMI-1640+10% FBS, and cells were tested in a logarithmic growth phase.
(§3) Cells in the logarithmic growth phase were collected and counted using a […]. The cell viability was detected by the trypan blue exclusion method, and the cell viability was kept over 90%. The cell concentration was adjusted to be in a proper range; 90 μL of the cell suspension was added to a 96-well plate.
(§4) The stock solutions of test compounds were diluted from 10 mM to 1 mM with DMSO and then serially diluted in a 3-fold gradient for 9 concentrations. The 2 μL DMSO-gradient diluted compound solutions were added to 98 μL culture solutions to give working stock solutions of test compounds (compound concentration was 10-fold higher than the final concentration, DMSO concentration was 1%, maximum concentration was 10 μM).
(§5) • 10 μL of compound working stock solution was added to each well in the 96-well plate inoculated with cells (10-fold dilution, final DMSO concentration was 0.1%).
(§6) The cells were cultured in a cell culture incubator at 5% CO2 for 72 hrs.
(§7) The CTG reagent was thawed and the cell plate was equilibrated to room temperature for 30 mins, 60 μL of reagent (Celltiter Glo assay kit) was added to each well, shaking was performed for 2 mins with a shaker (in the absence of light), and the plate was incubated at room temperature for 10 mins (in the absence of light). The light signal values were read on the multi-functional microplate reader.
(§8) • 1) Inhibition (%)=(DMSO solvent control well reading−test compound well reading)/(DMSO solvent control well reading−blank well reading)×100%; • 2) a curve was plotted with GraphPad Prism 5.0 and IC50 was obtained.

[2] = system: Ba/F3 ETV6-NTRK3-G623R cell line; experiment: as above; format: cell-based; conditions: Mus musculus, BaF3, Ba/F3 ETV6-NTRK3-G623R cells, 72 hrs
Procedure: as §1, §2, §3, §4, §5, §6, §7, §8

[3] = system: BaF3-LMNA-NTRK1-G595R stable cell strain xenograft tumor; experiment: Efficacy study on BaF3-LMNA-NTRK1-G595R stable cell strain subcutaneous xenograft model; format: in vivo, mice (NOD-SCID); conditions: bid, p.o., 7 days
Procedure: The RPMI 1640 serum-free medium resuspended BaF3 LMNA-NTRK1-G595R stable cell strains were inoculated subcutaneously in the right scapular region of mice (NOD-SCID) at 1×10^6 cells/mouse (0.1 mL/mouse).
When the average tumor volume was around 500 mm^3, the groups were randomized into vehicle group, Compound 3 group (10 mg/kg, 5 mg/kg, 3 mg/kg, 1 mg/kg, bid) and LOXO-195 group (30 mg/kg, 10 mg/kg, 3 mg/kg, bid).

[4] = system: Ba/F3 SLC34A2/ROS1-G2032R cell line; experiment: In vitro cytological inhibitory activity (Celltiter-Glo assay); format: cell-based; conditions: Mus musculus, BaF3, Ba/F3 SLC34A2/ROS1-G2032R cells, 72 hrs
Procedure: The cell lines used in the experiment have the following meanings: • Ba/F3 SLC34A2/ROS1-G2032R cell line: • a stable expression cell line of Ba/F3 cells transfected with SLC34A2/ROS1-G2032R. Experimental Method (Celltiter-Glo Assay) 1. Cell Culture and Inoculation
as §2, §3
The stock solutions of test compounds were diluted from 10 mM to 1 mM with DMSO and then serially diluted in a 3.16-fold gradient for 9 concentrations. The 2 μL DMSO-gradient diluted compound solutions were added to 98 μL culture solutions to give working stock solutions of test compounds (compound concentration was 10-fold higher than the final concentration, DMSO concentration was 1%, maximum concentration was 10 μM).
as §5
The final concentrations of test compounds were: 1000 nM, 316 nM, 100 nM, 31.6 nM, 10 nM, 3.16 nM, 1 nM, 0.316 nM and 0.1 nM.
as §6
The CTG reagent was thawed and the cell plate was equilibrated to room temperature for 30 mins, 100 μL of reagent (Celltiter Glo assay kit) was added to each well, shaking was performed for 5 mins with a shaker (in the absence of light), and the plate was incubated at room temperature for 20 mins (in the absence of light). The light signal values were read on the multi-functional microplate reader.
• 1) Cell viability (%)=(test compound well reading−blank well reading)/(DMSO solvent control well reading−blank well reading)×100%; • 2) a curve was plotted with GraphPad Prism 5.0 and IC50 was obtained.

SMILES	IC50 [1] [nM]	IC50 [2] [nM]	T/C (%) ([3]; Experiment 1, 3 mg/Kg)	TGI (%) ([3]; Experiment 1, 3 mg/Kg)	IC50 [4] [nM]	other results
C[C@H]1COc2ncc(F)cc2[C@H]2CCCN2c2ccc3ncn(c3n2)C(=O)N1 (single isomer, unassigned) [Compound 2]	0.6	1	–	–	–	–
C[C@@H]1COc2ncc(F)cc2[C@H]2CCCN2c2ccc3ncn(c3n2)C(=O)N1 (single isomer, unassigned) [Compound 3]	0.6	1	73.2	26.8	2.3	T/C (%) ([3]; Experiment 2, 1 mg/Kg): 53.7%; TGI (%) ([3]; Experiment 2, 1 mg/Kg): 46.3%; T/C (%) ([3]; Experiment 2, 5 mg/Kg): 0%; TGI (%) ([3]; Experiment 2, 5 mg/Kg): 100%; T/C (%) ([3]; Experiment 2, 10 mg/Kg): 0%; TGI (%) ([3]; Experiment 2, 10 mg/Kg): 100%
C[C@@H]1CCc2ncc(F)cc2[C@H]2CCCN2c2ccc3ncn(c3n2)C(=O)N1 (single isomer, unassigned) [Compound 11]	2	1.9	–	–	4.2	–
C[C@H]1COc2ncc(F)cc2[C@@H](C)Nc2ccc3ncn(c3n2)C(=O)N1 [Compound 13, (3R,7S)-4^5-fluoro-3,7-dimethyl-1^3H-5-oxa-2,8-diaza-1(5,3)-imidazo[4,5-b]pyridina-4(3,2)-pyridinacyclononphan-9-one]	17.3	18.9	–	–	6.7	–
C[C@@H]1CCc2ncc(F)cc2[C@H]2CCCN2c2ccn3ncc(c3n2)C(=O)N1 [LOXO-195, reference compound]	–	–	93.6	6.4	–	T/C (%) ([3]; Experiment 1, 10 mg/Kg): 63.1%; TGI (%) ([3]; Experiment 1, 10 mg/Kg): 36.9%; T/C (%) ([3]; Experiment 2, 30 mg/Kg): 0%; TGI (%) ([3]; Experiment 2, 30 mg/Kg): 100%

From patent US12178807B2, “Macrocyclic tyrosine kinase inhibitor and uses thereof” (XUANZHU BIOPHARMACEUTICAL CO., LTD., priority 2018, dated 2024)
